Assay results reported in patent US4861789A, “Dihydro-indene-amine-dihydrooxazoles” (Beecham Group plc, priority 1986, dated 1989).
Counter-ions that a name gives are not always drawn. Like-named read-outs stand apart in the source and are kept apart here.

Assays:
α2-Adrnoceptor = target: T1, α2-Adrnoceptor (Homo sapiens, UniProt P08913); assay: α2-Adrenoceptor binding ([3H] Rauwolscine, human platelet membranes)
T1 construct: from tissue; host or cells: human platelet membranes
T1 sequence (P08913 1-465): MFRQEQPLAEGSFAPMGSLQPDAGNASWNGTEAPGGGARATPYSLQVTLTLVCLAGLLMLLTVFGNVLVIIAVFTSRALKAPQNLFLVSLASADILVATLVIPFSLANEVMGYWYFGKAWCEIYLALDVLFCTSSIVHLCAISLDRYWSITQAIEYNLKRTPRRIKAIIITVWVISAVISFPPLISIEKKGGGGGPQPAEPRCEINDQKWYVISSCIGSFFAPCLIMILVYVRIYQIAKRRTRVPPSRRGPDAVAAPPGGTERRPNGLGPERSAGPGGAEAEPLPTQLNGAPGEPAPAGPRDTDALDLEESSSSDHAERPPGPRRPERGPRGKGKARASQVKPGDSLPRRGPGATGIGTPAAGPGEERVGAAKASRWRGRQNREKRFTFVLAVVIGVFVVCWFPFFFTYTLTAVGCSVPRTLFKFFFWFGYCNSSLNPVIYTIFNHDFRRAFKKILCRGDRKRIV
Protocol: Human platelet membranes were incubated with [^3 H] Rauwolscine (0.5-1.0 nM) for 30 minutes at 30° C. with varying concetrates of the drug (0.1-10,000 nM). The binding assay was stopped by filtering and rinsing on GF B glass fibre filters.
Binding Affinity (Ki) was calculated using the Cheng-Prussoff equation.

[1] = test system: Adrenaline-Exacerbated Glucose Intolerance; assay: Reversal of Adrenaline-Exacerbated Glucose Intolerance in Mice; format: in vivo, CFLP female mice; conditions: 20 μmol/kg oral gavage, 30 min before glucose (1 g/kg) and adrenaline (300 μg/kg) s.c.; blood samples 0-120 min; versus water dosed control
Protocol: Reversal of Adrenaline-Exacerbated Glucose Intolerance in Mice CFLP female mice of about 25 g were fasted for 24 hours prior to receiving water (10 ml/kg) or the compound by oral gavage. Thirty minutes later, glucose (1 g/kg) and adrenaline (300 μg/kg) were injected subcutaneously. Blood samples for glucose analysis were taken serially from the tail of each mouse at 0, 30, 60, 90 and 120 minutes after dosing glucose and the results are expressed below as the percentage reduction in the area under the blood glucose curve; the compound treated groups being compared to the water dosed control group. Six mice were used in each treatment group.

| SMILES | Ki (α2-Adrnoceptor) | % Reduction in area under Blood Glucose Curve [1] | Ki (α2-Adrnoceptor; [3H] Rauwolscine (0.5-1.0 nM), human platelet membranes, 30 minutes at 30° C., Cheng-Prussoff equation, read-out: Binding Affinity Ki) |
| --- | --- | --- | --- |
| C[C@H]1c2ccccc2C[C@H]1NC1=NCCO1 (relative stereo) [Example 6, 2-[cis-2-(2,3-dihydro-1-methyl-1H-indene)amino]4,5-dihydrooxazole] | 2 nM | – | – |
| C[C@H]1c2ccccc2C[C@@H]1NC1=NCCO1 (relative stereo) [Example 7, 2-[Trans-2-(2,3-dihydro-1-methyl-1H-indene)amino]4,5-dihydrooxazole] | 2 nM | – | – |
| c1ccc2c(c1)CC(NC1=NCCO1)C2 [Example 1, 2-[2-(2,3-Dihydro-1H-indene)amino]4,5-dihydrooxazole] | 1 nM | 35% | – |
| c1ccc2c(c1)CC(NC1=NCCN1)C2 [Example 2, 2-[2-(2,3-Dihydro-1H-indene)amino)4,5-dihydroimidazole hydrochloride hemihydrate] | 98 nM | – | – |
| Clc1cccc2c1CC(NC1=NCCO1)C2 (stereo not shown) [Example 3, 2-[2-(4-Chloro-2,3-dihydro-1H-indene)amino]4,5-dihydrooxazole] | 1 nM | 42% | – |
| Clc1ccc2c(c1)CC(NC1=NCCO1)C2 (stereo not shown) [Example 4, 2-[2-(5-Chloro-2,3-dihydro-1H-indene)amino]4,5-dihydrooxazole] | 25 nM | 44% | – |
| Cc1ccc2c(c1)CC(NC1=NCCO1)C2 (stereo not shown) [Example 5, 2-[2-(2,3-dihydro-5-methyl-1H-indene)amino]4,5-dihydrooxazole] | 25 nM | – | – |
| c1ccc2c(c1)CCC(NC1=NCCO1)C2 (stereo not shown) [Example 8, 2-[2-(1,2,3,4-Tetrahydronaphthyl)amino]4,5-dihydrooxazole] | – | 18% | – |
| c1ccc2c(c1)CC(NC1=NCCS1)C2 [Example 9, 2-[2-(2,3-Dihydro-1H-indene)amino]4,5-dihydrothiazole] | – | 33% | 190 nM |
